Data as given in patent US9815796B2 (Merck Sharp & Dohme Corp., priority 2013, dated 2017).
Like-named read-outs stand apart in the source and are kept apart here.

How the values were obtained:
Rhesus PDE2A3 = Rhesus PDE2A3 (Macaca mulatta, UniProt B3VTJ2); assay: PDE2 fluorescence polarization (IMAP FP) inhibition assay, rhesus enzyme; format: biochemical, rhesus macaque
Method in brief: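 Rhesus PDE2A3 came from lysate of transiently transfected AD293 cells, diluted to give 20% substrate conversion. Substrate was 50 nM FAM-cAMP with 1 uM cGMP activator in Tris pH 7.2/MgCl2 buffer, run 60 min at room temperature over 10-point 3-fold dilutions in 1% DMSO. Read-out was IMAP fluorescence polarization (mP) after ≥1 h binding.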

human PDE2A1 = human PDE2A1 (Homo sapiens (Human), UniProt O00408); assay: IMAP FP PDE selectivity panel, human PDE2A1; format: biochemical
Sequence of human PDE2A1 (O00408 other isoform, or with tags, fused parts or gaps): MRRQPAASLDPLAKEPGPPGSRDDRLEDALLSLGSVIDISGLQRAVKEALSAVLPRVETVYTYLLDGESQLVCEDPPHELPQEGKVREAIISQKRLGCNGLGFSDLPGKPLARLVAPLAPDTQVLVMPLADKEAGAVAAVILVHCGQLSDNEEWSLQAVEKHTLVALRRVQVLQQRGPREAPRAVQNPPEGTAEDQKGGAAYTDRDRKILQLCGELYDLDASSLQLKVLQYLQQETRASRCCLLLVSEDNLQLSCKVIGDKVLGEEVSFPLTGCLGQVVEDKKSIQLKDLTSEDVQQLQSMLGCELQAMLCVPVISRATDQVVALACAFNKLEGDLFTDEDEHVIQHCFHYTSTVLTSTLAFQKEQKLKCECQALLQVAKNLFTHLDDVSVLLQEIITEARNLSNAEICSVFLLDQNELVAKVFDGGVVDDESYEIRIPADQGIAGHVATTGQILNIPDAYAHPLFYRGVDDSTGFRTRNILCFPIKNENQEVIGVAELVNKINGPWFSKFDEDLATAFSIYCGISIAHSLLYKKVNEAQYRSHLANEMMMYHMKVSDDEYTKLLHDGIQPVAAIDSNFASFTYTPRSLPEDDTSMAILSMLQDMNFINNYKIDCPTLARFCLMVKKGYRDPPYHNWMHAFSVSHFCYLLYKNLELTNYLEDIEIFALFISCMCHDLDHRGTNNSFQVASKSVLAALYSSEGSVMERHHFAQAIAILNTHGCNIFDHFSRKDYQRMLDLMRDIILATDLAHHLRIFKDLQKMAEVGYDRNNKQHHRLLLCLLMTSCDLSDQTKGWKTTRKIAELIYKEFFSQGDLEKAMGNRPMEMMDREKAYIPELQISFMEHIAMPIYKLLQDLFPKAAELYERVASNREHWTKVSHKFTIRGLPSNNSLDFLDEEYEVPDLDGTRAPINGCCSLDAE
Method in brief: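 GST-tagged human PDE2A1 expressed in insect cells, run at room temperature for 60 min with 50 nM FAM-cAMP containing 1000 nM cGMP, pH 7.2 Tris/MgCl2 buffer. IMAP fluorescence polarization read after binding step.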

[1] = Rhesus PDE2, Lab A, read-out: Rhesus PDE2 Ki (nM) - Lab A
[2] = Rhesus PDE2, Lab B, read-out: Rhesus PDE2 Ki (nM) - Lab B
[3] = Human PDE2, Lab A, read-out: Human PDE2 Ki (nM) - Lab A
[4] = Human PDE2, Lab B, read-out: Human PDE2 Ki (nM) - Lab B

Sequence of Rhesus PDE2A3 (B3VTJ2 1-941): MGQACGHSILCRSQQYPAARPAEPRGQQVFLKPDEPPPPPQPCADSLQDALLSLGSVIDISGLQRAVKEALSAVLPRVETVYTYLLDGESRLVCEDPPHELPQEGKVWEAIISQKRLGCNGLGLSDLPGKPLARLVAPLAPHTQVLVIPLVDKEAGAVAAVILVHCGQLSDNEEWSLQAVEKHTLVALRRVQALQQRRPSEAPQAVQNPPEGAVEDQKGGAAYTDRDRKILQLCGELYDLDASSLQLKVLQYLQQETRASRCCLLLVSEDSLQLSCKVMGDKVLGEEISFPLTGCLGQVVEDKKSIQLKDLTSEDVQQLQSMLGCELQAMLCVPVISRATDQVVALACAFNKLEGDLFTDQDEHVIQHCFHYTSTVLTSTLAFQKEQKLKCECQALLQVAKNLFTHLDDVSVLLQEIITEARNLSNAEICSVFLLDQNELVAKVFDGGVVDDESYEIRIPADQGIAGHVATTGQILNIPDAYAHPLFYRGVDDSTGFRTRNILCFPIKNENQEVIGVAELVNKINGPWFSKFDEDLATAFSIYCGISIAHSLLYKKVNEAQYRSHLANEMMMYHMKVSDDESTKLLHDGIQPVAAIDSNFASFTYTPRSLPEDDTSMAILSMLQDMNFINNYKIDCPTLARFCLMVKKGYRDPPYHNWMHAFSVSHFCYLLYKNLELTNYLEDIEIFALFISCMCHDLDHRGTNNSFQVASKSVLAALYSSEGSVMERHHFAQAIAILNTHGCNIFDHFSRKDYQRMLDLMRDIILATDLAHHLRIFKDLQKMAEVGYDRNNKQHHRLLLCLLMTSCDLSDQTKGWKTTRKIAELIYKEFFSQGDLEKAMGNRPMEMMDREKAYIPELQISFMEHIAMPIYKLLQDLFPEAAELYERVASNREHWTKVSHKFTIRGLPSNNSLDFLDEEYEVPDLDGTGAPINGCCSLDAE

SMILES	Ki (Rhesus PDE2A3; [1]) [nM]	Ki (Rhesus PDE2A3; [2]) [nM]	Ki (human PDE2A1; [3]) [nM]	Ki (human PDE2A1; [4]) [nM]
COCc1nc(C(=O)N[C@H](C)c2ccc(OC(F)(F)F)c(F)c2)cc(=O)[nH]1 [Example 126, N-{(1R)-1-[3-fluoro-4-(trifluoromethoxy)phenyl]-ethyl}-2-(methoxymethyl)-6-oxo-1,6-dihydropyrimidine-4-carboxamide]	48	61	~11	64
CC(C)[C@@H](NC(=O)c1cc(=O)[nH]c(-c2ccccc2)n1)c1ccc(OC(F)(F)F)c(F)c1 [Example 127, N-{(1R)-1-[3-fluoro-4-(trifluoromethoxy)phenyl]-2-methylpropyl}-6-oxo-2-phenyl-1,6-dihydropyrimidine-4-carboxamide]	3.6	4.7	2.2	3.9
CC(C)[C@@H](NC(=O)c1cc(=O)[nH]c(C2CC2)n1)c1ccc(OC(F)(F)F)c(F)c1 [Example 128, 2-cyclopropyl-N-{(1R)-1-[3-fluoro-4-(trifluoromethoxy)phenyl]-2-methylpropyl}-6-oxo-1,6-dihydropyrimidine-4-carboxamide]	2		1.2	
Cc1nc(C(=O)NC2(c3ccc(SC(F)(F)F)c(F)c3)CCC2)cc(=O)[nH]1 [Example 129, N-(1-{3-fluoro-4-[(trifluoromethyl)sulfanyl]phenyl}cyclobutyl)-2-methyl-6-oxo-1,6-dihydropyrimidine-4-carboxamide]	218		184	
CSCC(NC(=O)c1cc(=O)[nH]c(C)n1)c1ccc(C(F)(F)F)cc1 (centres unmarked) [Example 131, 2-methyl-N-{2-(methylsulfanyl)-1-[4-(trifluoromethyl)phenyl]ethyl}-6-oxo-1,6-dihydropyrimidine-4-carboxamide]	170		123	
C[C@@H](NC(=O)c1cc(=O)[nH]c(Cc2ccc(F)cc2)n1)c1ccc(C(F)(F)F)cc1 [Example 132, 2-(4-fluorobenzyl)-6-oxo-N-{(1R)-1-[4-(trifluoromethyl)phenyl]ethyl}-1,6-dihydropyrimidine-4-carboxamide]	34		24	
C[C@@H](NC(=O)c1cc(=O)[nH]c(Cc2ccccc2)n1)c1ccc(C(F)(F)F)cc1 [Example 133, 2-benzyl-6-oxo-N-{(1R)-1-[4-(trifluoromethyl)phenyl]ethyl}-1,6-dihydropyrimidine-4-carboxamide]	21		20	
CCc1nc(C(=O)N[C@H](C)c2ccc(C(F)(F)F)cc2)cc(=O)[nH]1 [Example 134, 2-ethyl-6-oxo-N-{(1R)-1-[4-(trifluoromethyl)phenyl]ethyl}-1,6-dihydropyrimidine-4-carboxamide]	54		43	38
CCc1nc(C(=O)N[C@@H](C)c2ccc(C(F)(F)F)cc2)cc(=O)[nH]1 [Example 135, 2-ethyl-6-oxo-N-{(1S)-1-[4-(trifluoromethyl)phenyl]ethyl}-1,6-dihydropyrimidine-4-carboxamide]	1650		1140	
COc1ccc(Cc2nc(C(=O)N[C@H](C)c3ccc(C(F)(F)F)cc3)cc(=O)[nH]2)cc1 [Example 136, 2-(4-methoxybenzyl)-6-oxo-N-{(1R)-1-[4-(trifluoromethyl)phenyl]ethyl}-1,6-dihydropyrimidine-4-carboxamide]	6.3		2.2	
CC(C)c1nc(C(=O)N[C@H](C)c2ccc(C(F)(F)F)cc2)cc(=O)[nH]1 [Example 137, 2-(1-methylethyl)-6-oxo-N-{(1R)-1-[4-(trifluoromethyl)phenyl]ethyl}-1,6-dihydropyrimidine-4-carboxamide]	411		231	
C[C@@H](NC(=O)c1cc(=O)[nH]c(-c2cccc(F)c2)n1)c1ccc(C(F)(F)F)cc1 [Example 138, 2-(3-fluorophenyl)-6-oxo-N-{(1R)-1-[4-(trifluoromethyl)phenyl]ethyl}-1,6-dihydropyrimidine-4-carboxamide]	76		69	
C[C@@H](NC(=O)c1cc(=O)[nH]c(-c2ccc(F)c(F)c2)n1)c1ccc(C(F)(F)F)cc1 [Example 139, 2-(3,4-difluorophenyl)-6-oxo-N-{(1R)-1-[4-(trifluoromethyl)phenyl]ethyl}-1,6-dihydropyrimidine-4-carboxamide]	138		144	
COc1cccc(Cc2nc(C(=O)N[C@H](C)c3ccc(C(F)(F)F)cc3)cc(=O)[nH]2)c1 [Example 140, 2-(3-methoxybenzyl)-6-oxo-N-{(1R)-1-[4-(trifluoromethyl)phenyl]ethyl}-1,6-dihydropyrimidine-4-carboxamide]	6.5		5.1	
Cc1ccccc1-c1nc(C(=O)N[C@H](C)c2ccc(C(F)(F)F)cc2)cc(=O)[nH]1 [Example 141, 2-(2-methylphenyl)-6-oxo-N-{(1R)-1-[4-(trifluoromethyl)phenyl]ethyl}-1,6-dihydropyrimidine-4-carboxamide]	136		110	
C[C@@H](NC(=O)c1cc(=O)[nH]c(-c2ccccc2)n1)c1ccc(SC(F)(F)F)cc1 [Example 142, 6-Oxo-2-phenyl-N-[(1R)-1-{4-[(trifluoromethyl)sulfanyl]phenyl}ethyl]-1,6-dihydropyrimidine-4-carboxamide]	1.4		1.5	
O=C(NC1(c2ccc(C(F)(F)F)cc2)CCC1)c1cc(=O)[nH]c(C2CC2)n1 [Example 143, 2-cyclopropyl-6-oxo-N-{1-[4-(trifluoromethyl)phenyl]cyclobutyl}-1,6-dihydropyrimidine-4-carboxamide]	21		11	
C[C@@H](NC(=O)c1cc(=O)[nH]c(C2CC2)n1)c1ccc(-c2ccccc2)cc1 [Example 144, N-[(1R)-1-biphenyl-4-ylethyl]-2-cyclopropyl-6-oxo-1,6-dihydropyrimidine-4-carboxamide]	16		6	
O=C(NC1(c2ccc(C(F)(F)F)c(F)c2)CC1)c1cc(=O)[nH]c(-c2ccccc2)n1 [Example 145, N-{1-[3-fluoro-4-(trifluoromethyl)phenyl]cyclopropyl}-6-oxo-2-phenyl-1,6-dihydropyrimidine-4-carboxamide]	2.9		2.3	
CC(C)c1ccc([C@@H](C)NC(=O)c2cc(=O)[nH]c(-c3ccccc3)n2)cc1 [Example 146, N-{(1R)-1-[4-(1-methylethyl)phenyl]ethyl}-6-oxo-2-phenyl-1,6-dihydropyrimidine-4-carboxamide]	9.3		7.1	

Results, then the molecule that gave them:

Ki (Rhesus PDE2A3; [1]) [nM]	Ki (Rhesus PDE2A3; [2]) [nM]	Ki (human PDE2A1; [3]) [nM]	Ki (human PDE2A1; [4]) [nM]	SMILES
51		35		CC(NC(=O)c1cc(=O)[nH]c(-c2ccccc2)n1)c1ccc(C(F)(F)F)cc1Cl (centres unmarked) [Example 147, N-{1-[2-chloro-4-(trifluoromethyl)phenyl]ethyl}-6-oxo-2-phenyl-1,6-dihydropyrimidine-4-carboxamide]
5.2		2.6		C[C@@H](NC(=O)c1cc(=O)[nH]c(-c2ccccc2)n1)c1ccc(C(F)(F)F)c(F)c1 [Example 148, N-{(1R)-1-[3-fluoro-4-(trifluoromethyl)phenyl]ethyl}-6-oxo-2-phenyl-1,6-dihydropyrimidine-4-carboxamide]
204		117		CC(NC(=O)c1cc(=O)[nH]c(-c2ccccc2)n1)c1ccc(C(F)(F)F)cn1 (centres unmarked) [Example 149, 6-oxo-2-phenyl-N-{1-[5-(trifluoromethyl)pyridin-2-yl]ethyl}-1,6-dihydropyrimidine-4-carboxamide]
29		15		C[C@@H](NC(=O)c1cc(=O)[nH]c(-c2ccccc2)n1)c1ccc(C(F)(F)F)cc1F [Example 150, N-{(1R)-1-[2-fluoro-4-(trifluoromethyl)phenyl]ethyl}-6-oxo-2-phenyl-1,6-dihydropyrimidine-4-carboxamide]
3.3		3.2		CC[C@@H](NC(=O)c1cc(=O)[nH]c(-c2ccccc2)n1)c1ccc(SC(F)(F)F)cc1 [Example 151, 6-oxo-2-phenyl-N-[(1R)-1-{4-[(trifluoromethyl)sulfanyl]phenyl}propyl]-1,6-dihydropyrimidine-4-carboxamide]
16		13		C[C@@H](NC(=O)c1cc(=O)[nH]c(-c2ccccc2)n1)c1ccc(OC(F)(F)F)cc1F [Example 152]
2.6		1.5		C[C@@H](NC(=O)c1cc(=O)[nH]c(-c2ccccc2)n1)c1ccc(OC(F)(F)F)c(F)c1 [Example 154, N-{(1R)-1-[3-fluoro-4-(trifluoromethoxy)phenyl]ethyl}-6-oxo-2-phenyl-1,6-dihydropyrimidine-4-carboxamide]
119		143		COc1cc(C(C)NC(=O)c2cc(=O)[nH]c(-c3ccccc3)n2)ccc1C(F)(F)F (centres unmarked) [Example 155]
4.8		3.1		O=C(NC1(c2ccc(OC(F)(F)F)c(F)c2)CC1)c1cc(=O)[nH]c(-c2ccccc2)n1 [Example 157, N-{1-[3-fluoro-4-(trifluoromethoxy)phenyl]cyclopropyl}-6-oxo-2-phenyl-1,6-dihydropyrimidine-4-carboxamide]
14		9		CC(C)(NC(=O)c1cc(=O)[nH]c(-c2ccccc2)n1)c1ccc(C(F)(F)F)c(F)c1 [Example 158, N-{1-[3-fluoro-4-(trifluoromethyl)phenyl]-1-methylethyl}-6-oxo-2-phenyl-1,6-dihydropyrimidine-4-carboxamide]
